PubChem BioAssay AID2060333 (Molecular Pharmacology Branch, DTP, NCI, 2025)

Tested on: 845751-090-R-J2-PDC tumor spheroid viability
Experiment: Anticancer human tumor 845751-090-R-J2-PDC patient-derived head and neck squamous carcinoma cell line growth inhibition [IpAb]
Conditions: spheroids with HUVEC and MSC; for IC50: curve of first compound; for viability, T/C: stronger effect = lower value; active = viability on the fitted dose curve at most 10% of control; inactive = the rest
How it was run: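 Spheroids of 60% malignant cells, 25% HUVEC and 15% MSC were exposed to targeted agents combined with ipatasertib or abemaciclib. Doses started at or near clinical Cmax (10 microM when unknown) and fell in half-log steps.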
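Note: spheroids exposed to compounds for 7 days before readout.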
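Throughout, for viability, T/C: CTG3D luminescence normalised so that 100% = DMSO vehicle control.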

CC(C)(C)c1cnc(CSc2cnc(NC(=O)C3CCNCC3)s2)o1 + CC(C)NCC(C(=O)N1CCN(c2ncnc3c2C(C)CC3O)CC1)c1ccc(Cl)cc1
inactive: viability, T/C (second compound 0.1 µM, first compound 0.00949 µM) 88.9% | viability, T/C (second compound 0.1 µM, first compound 0.03 µM) 50.1% | viability, T/C (second compound 0.316 µM, first compound 0.00949 µM) 34.4% | viability, T/C (second compound 0.316 µM, first compound 0.03 µM) 40.4% | viability, T/C (second compound 0.316 µM, first compound 0.0949 µM) 9.45% | viability, T/C (second compound 1 µM, first compound 0.00949 µM) 27% | viability, T/C (second compound 1 µM, first compound 0.03 µM) 28.8% | viability, T/C (second compound 1 µM, first compound 0.0949 µM) 10.8% | viability, T/C (second compound 3.16 µM, first compound 0.00949 µM) 27.4% | viability, T/C (second compound 3.16 µM, first compound 0.03 µM) 27.7% | viability, T/C (second compound 3.16 µM, first compound 0.0949 µM) 9.06% | viability, T/C (second compound 10 µM, first compound 0.00949 µM) 14.1%
< 0.00949 µM: IC50 (second compound 0.316 µM) | IC50 (second compound 1 µM) | IC50 (second compound 3.16 µM) | IC50 (second compound 10 µM)
active: viability, T/C (second compound 0.1 µM, first compound 0.0949 µM) 7.88% | viability, T/C (second compound 0.1 µM, first compound 0.3 µM) 0.63% | viability, T/C (second compound 0.1 µM, first compound 0.949 µM) 0.78% | viability, T/C (second compound 0.1 µM, first compound 3 µM) 0.94% | viability, T/C (second compound 0.316 µM, first compound 0.3 µM) 0.23% | viability, T/C (second compound 0.316 µM, first compound 0.949 µM) 0.27% | viability, T/C (second compound 0.316 µM, first compound 3 µM) 0.95% | viability, T/C (second compound 1 µM, first compound 0.3 µM) 0.59% | viability, T/C (second compound 1 µM, first compound 0.949 µM) 0.34% | viability, T/C (second compound 1 µM, first compound 3 µM) 0.55% | viability, T/C (second compound 3.16 µM, first compound 0.3 µM) 0.29% | viability, T/C (second compound 3.16 µM, first compound 0.949 µM) 0.31% | viability, T/C (second compound 3.16 µM, first compound 3 µM) 0.87% | viability, T/C (second compound 10 µM, first compound 0.03 µM) 12.7% | viability, T/C (second compound 10 µM, first compound 0.0949 µM) 3.48% | viability, T/C (second compound 10 µM, first compound 0.3 µM) 1.09% | viability, T/C (second compound 10 µM, first compound 0.949 µM) 0.27% | viability, T/C (second compound 10 µM, first compound 3 µM) 1.61%
0.0301 µM: IC50 (second compound 0.1 µM)

Cn1nccc1Nc1nccc(-c2ccn(C(CO)c3ccc(Cl)c(F)c3)c(=O)c2)n1 (stereo not given) + CC(C)NCC(C(=O)N1CCN(c2ncnc3c2C(C)CC3O)CC1)c1ccc(Cl)cc1
0.558 µM: IC50 (second compound 0.1 µM)
< 0.0316 µM: IC50 (second compound 0.316 µM) | IC50 (second compound 1 µM) | IC50 (second compound 3.16 µM) | IC50 (second compound 10 µM)
active: viability, T/C (second compound 1 µM, first compound 3.16 µM) 9.8% | viability, T/C (second compound 1 µM, first compound 10 µM) 4.51% | viability, T/C (second compound 3.16 µM, first compound 1 µM) 8.53% | viability, T/C (second compound 3.16 µM, first compound 3.16 µM) 4.72% | viability, T/C (second compound 3.16 µM, first compound 10 µM) 3.12% | viability, T/C (second compound 10 µM, first compound 0.1 µM) 7.13% | viability, T/C (second compound 10 µM, first compound 0.316 µM) 5.99% | viability, T/C (second compound 10 µM, first compound 1 µM) 5.42% | viability, T/C (second compound 10 µM, first compound 3.16 µM) 3.44% | viability, T/C (second compound 10 µM, first compound 10 µM) 1.71%
inactive: viability, T/C (second compound 0.1 µM, first compound 0.0316 µM) 65.5% | viability, T/C (second compound 0.1 µM, first compound 0.1 µM) 66.5% | viability, T/C (second compound 0.1 µM, first compound 0.316 µM) 57.9% | viability, T/C (second compound 0.1 µM, first compound 1 µM) 41.6% | viability, T/C (second compound 0.1 µM, first compound 3.16 µM) 44.1% | viability, T/C (second compound 0.1 µM, first compound 10 µM) 35.8% | viability, T/C (second compound 0.316 µM, first compound 0.0316 µM) 45.6% | viability, T/C (second compound 0.316 µM, first compound 0.1 µM) 40.6% | viability, T/C (second compound 0.316 µM, first compound 0.316 µM) 24.3% | viability, T/C (second compound 0.316 µM, first compound 1 µM) 14.3% | viability, T/C (second compound 0.316 µM, first compound 3.16 µM) 16% | viability, T/C (second compound 0.316 µM, first compound 10 µM) 17.1% | viability, T/C (second compound 1 µM, first compound 0.0316 µM) 28.2% | viability, T/C (second compound 1 µM, first compound 0.1 µM) 23.2% | viability, T/C (second compound 1 µM, first compound 0.316 µM) 18% | viability, T/C (second compound 1 µM, first compound 1 µM) 13.1% | viability, T/C (second compound 3.16 µM, first compound 0.0316 µM) 22.9% | viability, T/C (second compound 3.16 µM, first compound 0.1 µM) 16.7% | viability, T/C (second compound 3.16 µM, first compound 0.316 µM) 11.5% | viability, T/C (second compound 10 µM, first compound 0.0316 µM) 11.3%
